Source: PMC10294756 (Journal of Enzyme Inhibition and Medicinal Chemistry, 2023)

Experiments:
HuH7 [1] = assay: MTT assay, HuH7 cells; assay type: cell-based, human; conditions: Homo sapiens, Huh-7, 48 h, read-out: IC50 HuH7
A549-Nur77-/- cells = assay: Cell cycle analysis by flow cytometry, A549 Nur77-/-; assay type: cell-based, human; conditions: 10 h
HepG2 [2] = assay: MTT assay, HepG2 cells; assay type: cell-based, human; conditions: Homo sapiens, HepG2, 48 h, read-out: IC50 HepG2
[3] = test system: transcriptional activity of Nur77 in Hela cells; assay: Dual-luciferase reporter assay; assay type: cell-based; conditions: 24 h treatment
HuH7 cells [4] = assay: Annexin V-FITC/PI apoptosis detection assay, HuH7; assay type: cell-based, human; conditions: 24 h
[5] = test system: cleaved-PARP, LC3-II and Nur77 in HepG2 cells; assay: Western blotting, HepG2 cells; assay type: cell-based, human
[6] = test system: HCC cell lines (HepG2, HuH7, and SMMC-7721); assay: MTT assay, results stated over the three HCC cell lines; assay type: cell-based; conditions: Homo sapiens, 48 h, read-out: IC50 against HCC cells (span over cell lines)
HepG2 cells [7] = assay: Annexin V-FITC/PI apoptosis detection assay, HepG2; assay type: cell-based, human; conditions: HepG2, 1.0 μM, 24 h
HepG2 [8] = assay: Colony formation assay, HepG2; assay type: cell-based, human; conditions: HepG2, one week
[9] = test system: cleaved-PARP and LC3-II in HuH7 cells; assay: Western blotting, HuH7 cells; assay type: cell-based, human; conditions: HuH7, 24 h
HuH7 cells [10] = assay: Cell cycle analysis by flow cytometry, HuH7; assay type: cell-based, human; conditions: 10 h
In vivo PK study = assay: In vivo PK study; design: species or system Sprague-Dawley (SD) rats
LO2 = assay: MTT assay, normal hepatocyte LO2; assay type: cell-based, human; conditions: Homo sapiens, L02, 48 h, read-out: IC50 LO2, normal liver cell line, MTT, 48 h
SMMC-7721 = assay: MTT assay, SMMC-7721 cells; assay type: cell-based, human; conditions: Homo sapiens, SMMC-7721, 48 h, read-out: IC50 SMMC-7721
HuH7 [11] = assay: Colony formation assay, HuH7; assay type: cell-based, human; conditions: HuH7, one week
HepG2 cells [12] = assay: Cell cycle analysis by flow cytometry, HepG2; assay type: cell-based, human; conditions: 10 h
[13] = female, Sprague-Dawley, rat, plasma, iv, 2 mg/kg
[14] = female, Sprague-Dawley, rat, plasma, po, 20 mg/kg

Cc1cc(Nc2ccc(C(=O)N/N=C/c3scnc3C)cc2)c2cccc(O)c2n1 [TMHA37, (E)-4-((8-hydroxy-2-methylquinolin-4-yl)amino)-N'-((4-methylthiazol-5-yl)methylene)benzohydrazide]
IC50 (HuH7 [1]): 4.09 ± 0.89 µM
TMHA37-caused G2/M arrest in Nur77-knockdown A549 cells compared to control cells (A549-Nur77-/- cells): significantly decreased
IC50 (HepG2 [2]): 2.33 ± 0.14 µM
reporter activity [3]: significantly increased the reporter fluorescence intensity in a dose-dependent manner
apoptotic cells (HuH7 cells [4]; HuH7, 1.0 μM): 12.82%
apoptotic cells (HuH7 cells [4]; HuH7, 10.0 μM): 69.50%
Nur77 protein expression in cytoplasm and nucleus ([5]; HepG2, 10 μM, 3 h): increased the protein expression levels of Nur77 in both cytoplasm and nuclear
LC3-II level ([5]; HepG2, 24 h): dose-dependently increased the level of LC3-II
cleaved-PARP level ([5]; HepG2, 24 h): dose-dependent upregulation of cleaved-PARP
IC50 [6]: 2.33 to 7.68 µM
apoptotic cells (HepG2 cells [7]): 6.42%
colony formation (HepG2 [8]): significantly and dose-dependently inhibited the colony formation
LC3-II level [9]: dose-dependently increased the level of LC3-II
cleaved-PARP level [9]: dose-dependent upregulation of cleaved-PARP
cells in G2 (G2/M) (HuH7 cells [10]; HuH7, TMHA37 1 μM): 20.07%
cells in G2 (G2/M) (HuH7 cells [10]; HuH7, TMHA37 10 μM): 48.26%
CL (In vivo PK study; SD rats, p.o. 20 mg/kg): 119.18 ± 18.43 L/h/kg
Vz (In vivo PK study; SD rats, p.o. 20 mg/kg): 192.55 ± 22.13 L/kg
AUC(0-inf) (In vivo PK study; [13]): 0.247 ± 0.0726 µg·h/mL
Cmax (In vivo PK study; [13]): 0.293 ± 0.0455 µg/mL
Tmax (In vivo PK study; [13]): 0.08 h
Vd (In vivo PK study; [13]): 22.2 ± 10.1 L/kg
clearance (In vivo PK study; [13]): 8.6 L/h/kg
half-life (In vivo PK study; [13]): 1.54 ± 0.35 h
AUC(0-inf) (In vivo PK study; [14]): 0.17 ± 0.0255 µg·h/mL
Cmax (In vivo PK study; [14]): 0.0196 ± 0.00097 µg/mL
Tmax (In vivo PK study; [14]): 5.83 ± 3.75 h
half-life (In vivo PK study; [14]): 1.13 ± 0.09 h
IC50 (LO2): 21.2 ± 1.79 µM
IC50 (SMMC-7721): 7.68 ± 1.3 µM
colony formation (HuH7 [11]): significantly and dose-dependently inhibited the colony formation
cells in G2 (G2/M) (HepG2 cells [12]; HepG2, TMHA37 1 μM): 26.72%
cells in G2 (G2/M) (HepG2 cells [12]; HepG2, TMHA37 10 μM): 63.17%

Cc1cc(Nc2ccc(C(=O)N/N=C/c3cc(Br)cs3)cc2)c2cccc(O)c2n1 [7C, (E)-N'-((4-bromothiophen-2-yl)methylene)-4-((8-hydroxy-2-methylquinolin-4-yl)amino)benzohydrazide]
IC50 (HuH7 [1]): 21.2 ± 2.28 µM
IC50 (HepG2 [2]): 16.4 ± 0.7 µM
IC50 [6]: < 30 µM
IC50 (LO2): 21 ± 1.18 µM
IC50 (SMMC-7721): 16 ± 0.54 µM

Cc1cc(Nc2ccc(C(=O)N/N=C/c3sccc3Br)cc2)c2cccc(O)c2n1 [7B, (E)-N'-((3-bromothiophen-2-yl)methylene)-4-((8-hydroxy-2-methylquinolin-4-yl)amino)benzohydrazide]
IC50 (HuH7 [1]): 18 ± 1.26 µM
IC50 (HepG2 [2]): 16.2 ± 1.53 µM
IC50 [6]: < 30 µM
IC50 (LO2): > 90 µM
IC50 (SMMC-7721): 26.1 ± 1 µM
